# According to patent US9987246B2, “4-benzylsulfonyl-2-butenenitrile” (Olatec Therapeutics LLC, priority 2014, dated 2018):
# Experiments:
# mice = test: Tail flick test (analgesic activity, 49° C. water bath); type: in vivo
# Protocol: Tail flick test is a test of the pain response in animals. Tail flick test is used in basic pain research and to measure the effectiveness of analgesics, by observing the tail flick reaction to heat in an animal. This test assesses the nociceptive response to a local pain stimulus, and the ability of a drug to inhibit this response.
# Vehicle control (dimethyl sulfoxide, DMSO) and test compound 4-benzylsulfonyl-2-butenenitrile in DMSO were administered intraperitoneally to mice with a volume of 5 mL/kg, twice, at 30 minutes before the first tail flick measurement. The test compound was administered at a dosage of 50 mg/kg. The positive control compound morphine was administered by subcutaneous injection at 8 mg/kg with a volume of 8 mL/kg, at 30 minutes before the first tail flick measurement. Each group had 10 mice.
# The response of mice to heat stimulus was evaluated by measuring the time of tail-flick or tail-flick latency from 49° C. water bath. Briefly, the animal was placed in a restrainer with its tail hanging down. Approximately 2 inches of the tail was immersed in a beaker of water at 38±1° C. for about 30 seconds, and this was done twice to acclimate the animal to the procedure.
# Subsequently, approximately 2 inches of the tail was immersed in a beaker of water at 49±1° C., at which point a timer was started.
# Tail flick measurements were made 30, 60 and 120 minutes post administration of the dosage of test compound. An ANOVA was done, and if p<0.05, a Dunnett's t test was employed to calculate significant difference between vehicle control and test compound treated groups. A pairwise Student's t test was used to calculate differences between the morphine group and the control group.
# [1] = tested on: human peripheral blood mononuclear cells; test: Pro-inflammatory cytokine release from human peripheral blood mononuclear cells in vitro; type: cell-based; conditions: statement only, no data or method given
SMILES,"tail flick latency compared with vehicle-treated mice (mice; 50 mg/kg intraperitoneal in DMSO, 30 minutes, p value=0.046)","tail flick latency compared with vehicle-treated mice (mice; 50 mg/kg intraperitoneal in DMSO, 120 minutes, p value=0.020)","inhibition of pro-inflammatory cytokine release (e.g., IL-1β, IL-6, TNFα, IL-4 and IFNγ) [1]","tail flick latency compared with vehicle-treated mice (mice; morphine 8 mg/kg subcutaneous injection, 30 minutes)","tail flick latency compared with vehicle-treated mice (mice; morphine 8 mg/kg subcutaneous injection, 60 minutes)","tail flick latency compared with vehicle-treated mice (mice; morphine 8 mg/kg subcutaneous injection, 120 minutes)"
N#CC=CCS(=O)(=O)Cc1ccccc1 (racemic) [4-benzylsulfonyl-2-butenenitrile],statistically significant tail flick latency,statistically significant tail flick latency,effective in inhibiting pro-inflammatory cytokine release,,,
"CN1CC[C@]23c4c5ccc(O)c4O[C@H]2[C@@H](O)C=C[C@H]3[C@H]1C5 [Morphine, morphine]",,,,statistically significant tail flick latency,statistically significant tail flick latency,not at 120 minutes
